For one assay, the system named is HEK293 cells. The experiment in a line: NAD+ measurement in HEK293 cells (NAD+ cycling assay). The settings on record: for cellular NAD concentration: 6 hours of incubation, 50-500 μM.
Another assay relates to INS1 cells. Nature of the assay: Glucose-induced insulin secretion test in INS1 cells with hydrogen peroxide challenge. In kind it is cell-based. The settings on record: 1 mM, 100 μM hydrogen peroxide, 15 mmol/l glucose.
The mark [1] stands for this setting: HEK cells, 50 μM, 6 hours, percentages of average NAD^+ as compared to control.

Description for HEK293 cells: Cell number were counted using hemocytometer.
After 6 hours of incubation, cells were harvested with Trypsin. A cell count was obtained from each cell suspension by hemacytometer. The cell pellets were used for NAD^+ measurement.
Water-only and nicotinamide riboside (NR) control treatments were run.
HEK cells were plated in 6-well plates until 90% confluent. […] After 6 hours of incubation, cells were harvested with Trypsin. A cell count was obtained from each cell suspension by hemacytometer. The cell pellets were used for NAD^+ measurement.
Description for INS1 cells: To induce insulin secretion, INS1 cells were seeded in 6-well plate. The cells were accommodated to low glucose RPMI-1640 media with 5 mmol/1 D-glucose overnight. Insulin secretion was assayed in HEPES balanced salt solution (HESS) (114 mmol/1 NaCl, 4.7 mmol/1 KCl, 1.2 mmol/1 KH2PO4, 1.16 mmol/1 MgSO4, 20 mmol/1 HEPES, 2.5 mmol/1 CaCl2, 25.5 mmol/1 NaHCO3, and 0.2% bovine serum albumin [essentially fatty acid free], pH 7.2). Cells wore washed in 1 ml HESS with 3 mmol/1 glucose followed by a 2 hr preincubation in 2 ml of the same buffer. Insulin secretion was then measured by incubating 1 hr 1 ml of HESS containing the 3 mmol/1 or 15 mmol/1 glucose concentration. The media was then collected for insulin analysis using RayBio™ Rat Insulin ELISA kit according to manufacturer's manual. In hydrogen peroxide challenge, 100 μM hydrogen peroxide were added to media together with 3 mmol/1 glucose containing HESS and incubated for 2 hr before switch to 15 mmol/l glucose containing HBSS for insulin secretion.

Consider `CCCCOC(=O)C1=CN([C@@H]2O[C@H](CO)[C@H](O)[C@@H]2O)C=CC1` [Bu NaR—H, butyl-1-((2R,3S,4R,5R)-3,4-dihydroxy-5-(hydroxymethyl)tetrahydrofuran-2-yl)-1,4-dihydropyridine-3-carboxylate], for which the “Average NAD^+ (pmoles/10^6 cells)” value in the assay with HEK293 cells (setting [1]) amounted to 124%.

Turning to `CCOC(=O)C1=CN([C@@H]2O[C@H](CO)[C@H](O)[C@@H]2O)C=CC1` [Et NaR-H, ethyl-1-((2R,3S,4R,5R)-3,4-dihydroxy-5-(hydroxymethyl)tetrahydrofuran-2-yl)-1,4-dihydropyridine-3-carboxylate], the “cellular NAD concentration” value with HEK293 cells (HEK cells) is “increased”. With `CCCCCCCOC(=O)C1=CN([C@@H]2O[C@H](CO)[C@H](O)[C@@H]2O)C=CC1` [Hep NaR—H, heptyl-1-((2R,3S,4R,5R)-3,4-dihydroxy-5-(hydroxymethyl)tetrahydrofuran-2-yl)-1,4-dihydropyridine-3-carboxylate], in the assay on HEK293 cells (setting [1]), the “Average NAD^+ (pmoles/10^6 cells)” value is recorded as 124%. Consider `NC(=O)c1ccc[n+]([C@@H]2O[C@H](CO)[C@@H](O)[C@H]2O)c1` [NR, nicotinamide riboside], for which the “insulin secretion level under hydrogen peroxide” value with INS1 cells was “restored the insulin secretion level back to a similar extent as untreated control”. For the same compound, the “increase in NAD^+” value with HEK293 cells (HEK293, 1000 mM as printed (1 mM elsewhere in the source)) amounted to 148%. Also, the “Average NAD^+ (pmoles/10^6 cells)” value in the assay on HEK293 cells (HEK293, 1000 mM as printed in table (1 mM elsewhere in the source), compared to control) is given as 148%. As for `CCCCCCCCOC(=O)C1=CN([C@@H]2O[C@H](CO)[C@H](O)[C@@H]2O)C=CC1` [Oct NaR—H, octyl-1-((2R,3S,4R,5R)-3,4-dihydroxy-5-(hydroxymethyl)tetrahydrofuran-2-yl)-1,4-dihydropyridine-3-carboxylate], the “Average NAD^+ (pmoles/10^6 cells)” value in the assay on HEK293 cells (setting [1]) came out at 112%. Take `CCCOC(=O)C1=CN([C@@H]2O[C@H](CO)[C@H](O)[C@@H]2O)C=CC1` [Pr NaR-H, propyl-1-((2R,3S,4R,5R)-3,4-dihydroxy-5-(hydroxymethyl)tetrahydrofuran-2-yl)-1,4-dihydropyridine-3-carboxylate]: the “cellular NAD concentration” value in the assay on HEK293 cells (HEK cells) was “increased”.

(Values after patent publication US11926644B2, “Syntheses, activities, and methods of use of dihydronicotinamide riboside derivatives” (Cornell University, priority 2015, dated 2024).)
